pIC50: −log10 of the molar value. In brackets after ≈: the same amount, converted by molar mass. Where two headings read alike, the source gives them in different places.
Assays:
α-glucosidase = molecular target: α-glucosidase; parameters: method as in earlier work; conditions: known active flavonoids from B. strychnifolia stem; cited from earlier work
[1] = molecular target: T1, α-glucosidase from Saccharomyces cerevisiae (Saccharomyces cerevisiae, UniProt P53341); experiment: α-Glucosidase inhibitory assay (pNPG substrate); format: biochemical; conditions: for pIC50: IC50 α-Glucosidase
T1 construct: purchased Sigma Aldrich Inc. (St. Louis, MO. USA)
T1 sequence (P53341 whole entry): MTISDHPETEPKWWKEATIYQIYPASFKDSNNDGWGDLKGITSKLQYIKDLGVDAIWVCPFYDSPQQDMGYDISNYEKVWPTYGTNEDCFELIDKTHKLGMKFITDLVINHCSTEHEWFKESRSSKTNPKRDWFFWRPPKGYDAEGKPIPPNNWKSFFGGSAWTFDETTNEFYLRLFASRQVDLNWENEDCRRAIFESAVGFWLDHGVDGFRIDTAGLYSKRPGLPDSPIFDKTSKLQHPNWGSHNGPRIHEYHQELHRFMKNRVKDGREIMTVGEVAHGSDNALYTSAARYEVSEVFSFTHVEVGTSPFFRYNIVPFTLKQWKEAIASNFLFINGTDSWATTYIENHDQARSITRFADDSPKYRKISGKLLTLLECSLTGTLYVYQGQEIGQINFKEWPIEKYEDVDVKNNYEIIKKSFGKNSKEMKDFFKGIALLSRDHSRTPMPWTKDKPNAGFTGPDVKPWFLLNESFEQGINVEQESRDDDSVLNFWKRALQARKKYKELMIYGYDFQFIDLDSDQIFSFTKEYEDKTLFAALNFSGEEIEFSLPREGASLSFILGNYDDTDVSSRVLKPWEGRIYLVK
From the text: (§1) Folin–Ciocalteu reagent was bought from Merck (Darmstadt, Germany). Fetal bovine serum (FBS), penicillin-streptomycin, Dulbecco’s Modified Eagle Medium, high glucose (DMEM, high glucose), Roswell Park Memorial Institute (RPMI) 1640 medium, trypsin-EDTA, trypan blue dyes, and 3-(4,5-dimethylthiazol-2-yl)-2,5 diphenyltetrazolium bromide (MTT) were obtained from Thermo Fisher Scientific (Waltham, CA, USA). Ethanol, methanol, hexane, dichloromethane, ethyl acetate, and acetone (as analytical grades) were purchased from Labscan Asia Co., Bangkok, Thailand.
The inhibitory effects against α-glucosidase enzyme of crude extract, partitioned fractions, and all isolated pure compounds were examined according to previous assay. In brief, 50 µL of each sample in 50 mM phosphate buffer, pH 6.9 (at various concentrations), was pre-mixed with 50 µL of 0.57 U/mL α-glucosidase enzyme for 10 min at 37 °C. Then, 50 µL of 5 mM pNPG substrate was added into the mixture and further incubated for 30 min, after that stopping the reaction by 50 µL of 1 M sodium carbonate solution (Na2CO3). A microplate reader (DTX880 Multimode Detector, Beckman Coulter®, Wien, Austria) immediately measured the absorbance at 405 nm. The following equation calculated the percentage of inhibition: [(Acontrol − Asample)/Acontrol] × 100, where Acontrol and Asample were the absorbance of reaction without and with the sample, respectively.

[2] = molecular target: T2, dipeptidyl peptidase-IV (DPP-IV) from porcine kidney (Sus scrofa, UniProt P22411); experiment: Dipeptidyl peptidase-IV (DPP-IV) inhibitory assay (GP-p-NA substrate); format: biochemical
T2 construct: purchased Sigma Aldrich Inc. (St. Louis, MO. USA); host or cells: porcine kidney (tissue-derived enzyme)
T2 sequence (P22411 whole entry): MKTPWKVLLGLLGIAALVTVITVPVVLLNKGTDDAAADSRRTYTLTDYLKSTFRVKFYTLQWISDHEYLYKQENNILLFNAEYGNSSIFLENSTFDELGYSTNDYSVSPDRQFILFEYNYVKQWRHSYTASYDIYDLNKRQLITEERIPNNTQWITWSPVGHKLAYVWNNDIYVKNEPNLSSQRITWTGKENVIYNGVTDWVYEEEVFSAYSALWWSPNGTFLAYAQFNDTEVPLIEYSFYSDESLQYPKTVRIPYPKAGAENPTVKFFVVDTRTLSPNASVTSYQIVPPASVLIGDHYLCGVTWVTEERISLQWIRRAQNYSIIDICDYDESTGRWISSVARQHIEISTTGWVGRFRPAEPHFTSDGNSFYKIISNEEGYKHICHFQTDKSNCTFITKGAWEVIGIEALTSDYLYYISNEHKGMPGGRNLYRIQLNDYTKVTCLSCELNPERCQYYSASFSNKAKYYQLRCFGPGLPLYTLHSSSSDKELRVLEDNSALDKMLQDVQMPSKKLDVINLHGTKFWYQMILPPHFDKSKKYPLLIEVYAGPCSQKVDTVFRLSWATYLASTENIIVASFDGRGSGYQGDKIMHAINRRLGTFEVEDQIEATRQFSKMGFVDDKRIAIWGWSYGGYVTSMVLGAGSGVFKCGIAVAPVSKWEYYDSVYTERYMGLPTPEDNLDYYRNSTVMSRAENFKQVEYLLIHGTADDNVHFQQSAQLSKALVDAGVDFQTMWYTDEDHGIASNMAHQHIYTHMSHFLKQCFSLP
From the text: as §1
The DPP-IV inhibition activities of crude extract, partitioned fractions, and isolated pure compounds were investigated, following the procedure of Van et al. (2009) and Al-Masri et al. (2009), with some modifications. Concisely, 40 µL of each sample diluted in 50 mM Tris-HCl buffer, pH 8.0 (at final concentration 50 ug/mL), was pre-incubated with 30 µL of 0.05 U/mL of DPP-IV enzyme at 37 °C. After 10 min, 100 µL of 0.2 mM GP-p-NA substrate was added to the solution and further incubated for 30 min. Then, the reaction was terminated with 30 µL of 25% acetic acid, and the absorbance at 405 nm was suddenly measured by a microplate reader (DTX880 Multimode Detector, Beckman Coulter®, Wein, Austria). The percentage of inhibition was calculated, following the formula: [(Acontrol − Asample)/Acontrol] × 100, where Acontrol and Asample were the absorbances of reaction with and without sample, respectively. Diprotin A was employed as a positive control, and the results were presented as the IC50 value.

[3] = system: LPS-induced raw 264.7 cells; experiment: Nitric oxide production in LPS-induced raw 264.7 cells (Griess assay); format: cell-based, murine; conditions: 200 ng/mL LPS, 24 h, Figure 5
Procedure: The investigation of the inhibitory activities against LPS induced nitric oxide (NO) production of crude extract, partitioned fractions, and isolated compounds by Griess assay, which was accomplished as described by Kaewdana et al.. Briefly, Raw264.7 cells were seeded, at the density of 1 × 10^5 cells/well, in 96-well plates. After 1–2 h culture, the medium was changed and co-treated with different concentrations of samples and 200 ng/mL LPS for 24 h. After that, the nitrite-containing medium was equally mixed with the Griess reagent (1% sulfanilamide in 5% phosphoric acid and 0.1% naphthyl ethylenediamine dihydrochloride (NED) in water) and measured by a microplate reader at 570 nm. Indomethacin (a nonsteroidal anti-inflammatory drug) was used as a positive control. Results were shown as the percentage of inhibition calculated, following the equation: [(Acontrol − Asample)/Acontrol] × 100.

3T3-L1 adipocytes = experiment: Glucose uptake assay in differentiated 3T3-L1 adipocytes (GO kit); format: cell-based, mouse; conditions: for glucose uptake stimulation: positive control
Procedure: The 3T3-L1 pre-adipocytes were induced to differentiate into adult adipocytes after 48 h of confluence in 48 wells plate. The cells were incubated with cultured media, comprising of 1 µg/mL insulin, 10 µM dexamethasone, and 0.5 mM IBMX. After 48 h of incubation, differentiate media were removed and replaced with cultured media containing 1 µg/mL insulin. Then, the maintained media were changed every two days for eight days.
The glucose uptake stimulatory effect of crude extract, partitioned fractions, and isolated compounds was determined by the previously described method [60]. Briefly, differentiated adipocytes were grown in 48-well plates, with cultured media containing 2% FBS, for 18 h. Then, the cells were washed and treated with various concentrations of samples in a complete low glucose medium. After 24 h of incubation, the treated medium of samples was individually transferred into 96-well plates and mixed with the reagent of the GO kit at 37 °C for 30 min. The reaction was terminated by 6M H2SO4, and the absorbance of remaining glucose at 540 nm was recorded by a microplate reader. The ability to enhance glucose uptake was measured by the amount of glucose in the media. The percentage of glucose uptake stimulation was calculated by following equation: %stimulation = [(Acontrol − Asample)/Acontrol] × 100, where Acontrol and Asample were the absorbances of reaction with and without sample, respectively.

[4] = molar value, in parentheses in Table 3

Compound	pIC50 [2]	pIC50 [2, 4]	effect on NO production (in words) [3]	also measured
C[C@@H]1O[C@@H](Oc2coc3cc(O)cc(O)c3c2=O)[C@H](O)[C@H](O)[C@H]1O [3,5,7-Trihydroxychromone-3-O-α-L-rhamnopyranoside]	–	–	–	IC50 α-glucosidase inhibitory effect (α-glucosidase): 540 µg/mL (≈ 1590 µM)
Oc1cc(O)c2c(c1)O[C@H](c1ccc(O)c(O)c1)[C@H](O)C2 [Epicatechin]	< 4.30	< 4.30	inhibitory effect on NO production at only high concentrations	α-glucosidase inhibitory ability (in words) [1]: no effect
O=C(O)c1cc(O)c(O)c(O)c1 [Gallic acid]	< 4.30	< 4.30	inhibitory effect on NO production at only high concentrations	α-glucosidase inhibitory ability (in words) [1]: no effect; pIC50 [1]: < 4.60; pIC50 [1, 4]: < 4.60
COc1ccc2c(c1)c(CC(=O)O)c(C)n2C(=O)c1ccc(Cl)cc1 [Indomethacin, indomethacin, reference compound]	–	–	potent anti-inflammatory	–
O=c1c(O)c(-c2ccc(O)c(O)c2)oc2cc(O)cc(O)c12 [Quercetin]	5.08	5.08	no effect	glucose uptake stimulation effect (in words) (3T3-L1 adipocytes; Figure 4): higher glucose uptake stimulation effect than resveratrol, gallic acid, and epicatechin
Oc1ccc(/C=C/c2cc(O)cc(O)c2)cc1 [Resveratrol]	4.85	4.85	inhibitory effect on NO production at only high concentrations	–
CN(C)C(=N)N=C(N)N [metformin, reference compound]	–	–	–	glucose uptake stimulation (3T3-L1 adipocytes; 2 mM): 85.34%
insulin	–	–	–	glucose uptake stimulation (3T3-L1 adipocytes; 100 nM): 92.81%

Source: paper PMC9032570, “Flavonoids and Phenols, the Potential Anti-Diabetic Compounds from Bauhinia strychnifolia Craib. Stem” (Molecules, 2022)
